Measurements published in patent publication US20190111103A1, “NOVEL PEPTIDE OR SALT THEREOF, COMPOSITION FOR ENHANCING PROLIFERATION OF FIBROBLAST CELLS AND COMPOSITION FOR ENHANCING ELASTIN PRODUCTION IN FIBROBLAST CELLS AND CHONDROCYTES CONTAINING THE SAME” (Hayashikane Sangyo Co., Ltd., priority 2017, published 2019).

Legend:
[1] = system: human skin fibroblast cells; details: known from the literature (positive control); cited from earlier work
[2] = system: normal human skin fibroblast cells; experiment: Proliferation test of normal human skin fibroblast cells; assay type: cell-based; details: similar experiment with the hydrolysate
Description: Skin fibroblast cells cultured in a culture flask was seeded in a 96-well plate at 3,500 cells/cm^2 ([…], medium: 10% FBS DMEM). After incubating for 24 hours at 37° C. under 5% CO2 condition, the liquid medium in the wells was removed, replaced with DMEM containing 0.5% FBS and incubated for 24 hours under similar conditions. The liquid medium in the wells was removed and the wells were washed with DPBS, after which DPBS was removed. Solutions of predetermined concentrations of peptide Val-Pro-Gly-Gly (VPGG) and peptide Val-Pro-Gly-Ala (VPGA) were prepared using DMEM containing 0.5% FBS were prepared and 100 μL of the solution was added to each well. Fibroblast cells were incubated for 4 days at 37° C. under 5% CO2 condition and supernatant was recovered. The supernatant recovered was used for a measurement of amount of elastin production in Example 2. DMEM containing 0.5% FBS was added and cells were counted using cell counting kit-8 (10 μL/well) and a cell proliferation rate relative to the cell number obtained from the sample without adding the peptides.

[3] = system: human skin fibroblast cells; experiment: Migration activity test of normal human skin fibroblast cells; assay type: cell-based; details: 20 hours, membrane inserts pore size 8 μm, absorbance at 560 nm
Description: Effect of peptide Val-Pro-Gly-Gly on a migration activity of fibroblast cells that relates to processes of recovery and regeneration of tissue and wound healing was investigated. To bottom of each well of 24-well plate of CytoSelect (registered trade mark) 24-well Cell Migration Assay Kit (Cell Biotics), DMEM medium (control), 500 μL of peptide Val-Pro-Gly-Gly or peptide Val-Pro-Gly (positive control: see “Elastin—Structure, Function and Pathology”, edited and written by Hiroyuki Ito, Elastin Study Group of Japan (not for sale), p. 124-137, 2008) dissolved in DMEM medium were added. Then, 300 μL of cell suspension of human skin fibroblast cells (P4 to 5) prepared by dispersing the cell in DMEM media (1×10^6 cells/mL) was added inside membrane inserts (pore size: 8 μm). The inserts were inserted in wells and incubated in a cell incubator at 37° C. for 20 hours (in preliminary examination, duration of incubation was also set to 6 hours). […] Cells were stained by adding 400 μL of cell stain liquid and staining for 10 minutes at room temperature. Then the inserts were washed with distilled water, dried and stain was confirmed by optical microscopic observation. […] of reaction mixture was placed in 96-well plate and absorbance at 560 nm was measured using a plate reader.

[4] = system: normal human knee joint chondrocytes (NHAc-kn); experiment: Elastin production test in normal human knee joint chondrocytes (dot blot); assay type: cell-based
Description: Normal human knee joint chondrocytes (NHAc-kn: 1.0×10^5 cells/mL) were seeded in a 24-well plate (900 μL/well, medium: CBM+0.5% FBS) and incubated under humidification condition at 37° C. in 5% CO2 atmosphere for 48 hours. The medium was exchanged and peptide VPGG and peptide VP was added (100 μL/well, final concentration: 0 to 5000 nM) and incubated under humidification condition at 37° C. in 5% CO2 atmosphere for 48 hours. From the cell culture thus obtained, supernatant was collected and dot-blotted onto a PVDF membrane. After blocking with PBST containing 5% skim milk, the membrane was washed with PBST. The membrane was reacted with rabbit anti-elastin antibody as a primary antibody, washed with PBST and reacted with HRP conjugate goat […] as a secondary antibody and washed with PBST. The membrane was reacted with a detection reagent ImmunoStar (FUJIFILM Wako Pure Chemical Corporation) and the amount of elastin production was estimated based on intensities of signals obtained.

Val-Pro-Gly
effect for promoting cell migration [1]: known to have the effect for promoting cell migration

Val-Pro-Gly-Ala (VPGA; printed: Val-Pro-Gly-Ala)
cell proliferation rate compared with hydrolysate of elastin from bonitos bulbus arteriosus [2]: higher cell proliferation rate

Val-Pro-Gly-Gly (VPGG; printed: Val-Pro-Gly-Gly)
cell proliferation rate compared with hydrolysate of elastin from bonitos bulbus arteriosus [2]: higher cell proliferation rate | effect for promoting cell migration compared with peptide Val-Pro-Gly (positive control) [3]: significantly higher effect for promoting cell migration

Val-Pro
effect on the elastin production in the chondrocytes [4]: promoting effect
